Test results reported in paper PMC8580996, “2-Oxoglutarate derivatives can selectively enhance or inhibit the activity of human oxygenases” (Nature Communications, 2021).
pIC50: −log10 of the molar value. “And” between values parts separate entries of the source, which are not always exact repeats. Equal entries are not always repeated. Where two headings read alike, the source gives them in different places.

How the values were obtained:
FIH [1] = target: T1, FIH (Homo sapiens, UniProt Q9NWT6); test: SPE-MS FIH turnover (cosubstrate) assay in the absence of 2OG; type: biochemical; settings: 330 μM 2OG or 2OG derivative, no 2OG, t = 15 min
T1 sequence (Q9NWT6 whole entry): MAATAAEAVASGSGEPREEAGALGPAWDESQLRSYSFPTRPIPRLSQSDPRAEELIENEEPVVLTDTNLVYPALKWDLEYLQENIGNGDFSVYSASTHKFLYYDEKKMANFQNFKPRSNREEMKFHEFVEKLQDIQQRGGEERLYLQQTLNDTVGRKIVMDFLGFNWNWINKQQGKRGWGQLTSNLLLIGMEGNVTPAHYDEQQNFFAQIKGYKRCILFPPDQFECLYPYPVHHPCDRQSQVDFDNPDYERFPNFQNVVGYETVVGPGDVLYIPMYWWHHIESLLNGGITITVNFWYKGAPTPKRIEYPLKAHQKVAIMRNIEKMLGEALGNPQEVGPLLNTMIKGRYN
Description: The ability of 35 synthetic C3/C4-substituted 2OG derivatives, which were prepared via a reported procedure (Supplementary Fig. 1 and Supplementary Methods)[21], to sustain catalysis by purified recombinant FIH in the absence of 2OG was examined using an assay directly monitoring substrate depletion and product formation (i.e., a +16 Da mass shift) by solid-phase extraction (SPE) coupled to mass spectrometry (SPE-MS)[44],[45]. […] (i.e. CA1–20)[47], were used as FIH substrates to test for potential substrate-dependent differences in terms of cosubstrate analog selectivity.
Assay samples were aspirated under vacuum for 0.6 s and loaded onto a C4 SPE cartridge. After loading, the C4 SPE cartridge was washed with 0.1%v/v aqueous formic acid to remove non-volatile buffer salts (5.5 s, 1.5 mL/min). […] The mass spectrometer was operated using the MassHunter Workstation B.08.00 software (Agilent), the mass spectrometer parameters were: capillary voltage (4000 V), nozzle voltage (1000 V), fragmentor voltage (365 V), gas temperature (280 °C), gas flow (13 L/min), sheath gas temperature (350 °C), sheath gas flow (12 L/min). […] Data were exported into Microsoft Excel and used to calculate the % conversion of the hydroxylation reaction using the equation: % conversion = 100 × (integral product peptide)/(integral substrate peptide+integral product peptide). […] Z′-factors were calculated according to the cited literature using Microsoft Excel (Supplementary Fig. 26)[83].

AspH [2] = target: T2, AspH (Homo sapiens, UniProt Q12797); set-up: method as in PMID 34163896; settings: hFX-CP101–119 substrate, 330 μM 2OG or 2OG derivative, t = 15 min; cited from earlier work
T2 construct: the tetratricopeptide repeat domain (His6-AspH315-758), was produced and purified as previously reported; made in house
T2 sequence (Q12797 315-758): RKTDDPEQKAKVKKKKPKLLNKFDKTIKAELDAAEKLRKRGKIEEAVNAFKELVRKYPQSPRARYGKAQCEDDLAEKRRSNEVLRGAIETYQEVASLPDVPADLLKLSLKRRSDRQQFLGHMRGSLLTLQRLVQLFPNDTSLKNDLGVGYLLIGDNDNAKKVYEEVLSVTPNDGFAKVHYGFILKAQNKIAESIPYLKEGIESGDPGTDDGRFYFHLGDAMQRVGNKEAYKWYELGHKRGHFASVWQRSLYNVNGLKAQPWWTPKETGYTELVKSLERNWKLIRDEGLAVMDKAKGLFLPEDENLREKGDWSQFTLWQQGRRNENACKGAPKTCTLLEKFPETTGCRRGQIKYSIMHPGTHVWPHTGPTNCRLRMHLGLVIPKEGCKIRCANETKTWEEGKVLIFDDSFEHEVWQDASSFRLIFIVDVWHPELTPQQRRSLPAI

FIH [3] = target: T1, FIH; test: SPE-MS FIH inhibition assay; type: biochemical; on IC50 FIH: 0.15 µM FIH
Description: FIH inhibition assays were performed as described, using cosubstrate/cofactor stock solutions (L-ascorbic acid, LAA: 50 mM in MQ-grade water; 2-oxoglutarate, 2OG: 10 mM in MQ-grade water; ammonium iron(II) sulfate hexahydrate, FAS, (NH4)2Fe(SO4)2·6H2O: 400 mM in 20 mM HCl diluted to 1 mM in MQ-grade water), which were freshly prepared from commercially-sourced solids (Sigma Aldrich).
Dimethyl sulfoxide (DMSO) solutions of the 2OG derivatives were dry dispensed across 384-well polypropylene assay plates (Greiner) in an approximately threefold and 11-point dilution series (100 μM top concentration; the final DMSO assay concentration was kept constant at 0.5%v/v) using an ECHO 550 acoustic dispenser (Labcyte). […] Each reaction was performed in technical duplicates in adjacent wells of the assay plates; additionally, assays were performed in two independent duplicates on different days using different inhibitor solutions.
The Enzyme Mixture (25 μL/well), containing 0.3 μM His6-FIH in buffer (50 mM Tris, 50 mM NaCl, pH 7.5), was dispensed across the inhibitor-containing 384-well assay plates with a multidrop dispenser (ThermoFischer Scientific) at 20 °C under an ambient atmosphere. The plates were subsequently centrifuged (1000 rpm, 15 s) and incubated for 15 min at 20 °C. The Substrate Mixture (25 μL/well), containing 10.0 μM HIF-1α788–822[37] substrate, 200 μM LAA, 20.0 μM 2OG, and 20.0 μM FAS in buffer (50 mM Tris, 50 mM NaCl, pH 7.5), was added using the multidrop dispenser. The plates were centrifuged (1000 rpm, 15 s) and after incubating for 15 min, the enzyme reaction was stopped by the addition of 10%v/v aqueous formic acid (5 μL/well). The plates were then centrifuged (1000 rpm, 30 s) and analyzed by MS.
MS-analyses were performed using a RapidFire RF 365 high-throughput sampling robot (Agilent) attached to an iFunnel Agilent 6550 accurate-mass quadrupole time-of-flight mass spectrometer operated in the positive ionization mode. Assay samples were aspirated under vacuum for 0.6 s and loaded onto a C4 SPE cartridge. After loading, the C4 SPE cartridge was washed with 0.1%v/v aqueous formic acid to remove non-volatile buffer salts (5.5 s, 1.5 mL/min). […] The mass spectrometer was operated using the MassHunter Workstation B.08.00 software (Agilent), the mass spectrometer parameters were: capillary voltage (4000 V), nozzle voltage (1000 V), fragmentor voltage (365 V), gas temperature (280 °C), gas flow (13 L/min), sheath gas temperature (350 °C), sheath gas flow (12 L/min). The m/z + 2 (for CA1–20) or +3 (for HIF-1α788–822) charge states of the peptide (substrate) and the hydroxylated peptide (product) were used to extract ion chromatogram data, peak areas were integrated using RapidFire Integrator 4.3.0 (Agilent). Data were exported into Microsoft Excel and used to calculate the % conversion of the hydroxylation reaction using the equation: % conversion = 100 × (integral product peptide)/(integral substrate peptide+integral product peptide). […] Z′-factors were calculated according to the cited literature using Microsoft Excel (Supplementary Fig. 26)[83].
SPE-MS FIH inhibition assays were performed as described in the Methods section.
Tris, 50 mM NaCl, pH 7.5, 20 °C). […]

AspH [4] = target: T2, AspH; settings: cited from earlier work
[5] = […] FIH, 5.0 μM HIF-1α788-822, 10 μM 2OG, mean of two runs, read-out: IC50 FIH
[6] = source data of Table 3, single independent replicates, read-out: FIH IC50, independent replicate
[7] = 0.05 μM AspH, 1.0 μM hFX-CP101-119, 3.0 μM 2OG, ref 21 (supplementary ref 1)
[8] = […] FIH, 5.0 μM HIF-1α788-822, 10 μM 2OG, mean of two runs

Compound	FIH activity, %-substrate conversion (FIH [1]; CA1–20 substrate)	FIH activity, %-substrate conversion (FIH [1]; HIF-1α788–822 substrate)	pIC50 (FIH [3]; [5])	pIC50 (FIH [3]; [6])	IC50 FIH (FIH [3]; [8])	FIH IC50, independent replicate (FIH [3]; source data of Table 3, single independent replicates)	AspH activity, %-substrate conversion (AspH [2]) [%]	IC50 AspH (AspH [4]; [7])	pIC50 (AspH [4]; [7])	pIC50 (AspH [4]; NOFD control, supplementary ref 13)
CCCC(CC(=O)C(=O)O)C(=O)O (centres unmarked) [compound 15, 4-propyl-2OG]	~70%	~5%	4.83	4.82 and 4.85	–	–	<1	–	–	–
O=C(O)C(=O)c1ccc(C(=O)O)cc1F [compound 29]	^c<1% ^d<1%	^c<1% ^d<1%	–	–	inactive	–	~45	inactive	–	–
O=C(O)C(=O)[C@@H]1[C@@H](C(=O)O)[C@@H]2C=C[C@H]1C2 (racemic) [compound 24]	^c<1% ^d<1%	^c<1% ^d<1%	–	–	inactive	–	<1	–	–	–
CC(C)(C)CCC(CC(=O)C(=O)O)C(=O)O (centres unmarked) [compound 17]	^c<1% ^d<1%	^c<1% ^d<1%	4.41	–	–	–	<1	–	–	–
CC1(C)C(C(=O)O)C1C(=O)C(=O)O (centres unmarked) [compound 21]	^c<1% ^d<1%	^c<1% ^d<1%	4.71	–	–	–	<1	–	–	–
O=C(O)C(=O)c1ccc(C(=O)O)s1 [compound 35]	^c<1% ^d<1%	^c<1% ^d<1%	–	–	inactive	not inhibiting	~15	–	–	–
O=C(O)C(=O)C1(C(=O)O)CC1 [compound 23]	^c<1% ^d<1%	^c<1% ^d<1%	–	–	inactive	–	<1	–	–	–
Cc1cc(C)cc(CC(CC(=O)O)C(=O)C(=O)O)c1 (centres unmarked) [compound 10]	^c<1% ^d<1%	^c<1% ^d<1%	–	–	inactive	–	<1	–	–	–
O=C(O)C(=O)N[C@H](Cc1ccccc1)C(=O)O [NOFD, N-oxalyl-D-phenylalanine, reference compound]	–	–	–	–	–	–	–	–	–	4.81

Second part, led by results:

FIH activity, %-substrate conversion (FIH [1]; CA1–20 substrate)	FIH activity, %-substrate conversion (FIH [1]; HIF-1α788–822 substrate)	pIC50 (FIH [3]; [5])	pIC50 (FIH [3]; [6])	IC50 FIH (FIH [3]; [8])	FIH IC50, independent replicate (FIH [3]; source data of Table 3, single independent replicates)	Compound	AspH activity, %-substrate conversion (AspH [2]) [%]	IC50 AspH (AspH [4]; [7])	pIC50 (AspH [4]; [7])	pIC50 (AspH [4]; NOFD control, supplementary ref 13)
^c<1% ^d<1%	^c<1% ^d<1%	–	5.74 and 5.73	–	–	CC1(C)c2ccccc2-c2ccc(CC(CC(=O)O)C(=O)C(=O)O)cc21 (centres unmarked) [compound 11, 3-((9,9-dimethyl-9H-fluoren-2-yl)methyl)-2OG]	<1	–	5.37	–
^c<1% ^d<1%	^c<1% ^d<1%	5.44	–	–	–	COc1ccc(CC(CC(=O)O)C(=O)C(=O)O)cc1 (centres unmarked) [compound 9]	<1	–	–	–
^c<1% ^d<1%	^c<1% ^d<1%	5.12	–	–	–	O=C(O)CC(Cc1ccc(F)cc1)C(=O)C(=O)O (centres unmarked) [compound 7]	<1	–	–	–
^c<1% ^d<1%	^c<1% ^d<1%	5.60	–	–	–	O=C(O)C(=O)CC(Cc1ccc2ccccc2c1)C(=O)O (centres unmarked) [compound 20]	<1	–	–	–
^c<1% ^d<1%	^c<1% ^d<1%	–	5.47 and 5.44	–	–	O=C(O)C(=O)CC(Cc1ccccc1)C(=O)O (centres unmarked) [compound 19, 4-benzyl-2OG]	<1	–	–	–
^c<1% ^d<1%	^c<1% ^d<1%	4.51	–	–	–	CC(C)(C)CCC(CC(=O)O)C(=O)C(=O)O (centres unmarked) [compound 4]	<1	–	–	–
^c<1% ^d<1%	^c<1% ^d<1%	5.24	–	–	–	O=C(O)CC(CCCc1ccccc1)C(=O)C(=O)O (centres unmarked) [compound 5]	<1	–	–	–
^c<1% ^d<1%	^c<1% ^d<1%	4.90	–	–	–	O=C(O)CC(Cc1ccc(OC(F)(F)F)cc1)C(=O)C(=O)O (centres unmarked) [compound 8]	<1	–	–	–
^c<1% ^d<1%	^c<1% ^d<1%	5.19	5.24 and 5.15	–	–	O=C(O)CC(Cc1ccccc1)C(=O)C(=O)O (centres unmarked) [compound 6]	<1	–	–	–
